Assay results published in patent publication US5352659A, “Endothelin analogs and uses thereof” (Takeda Chemical Industries, priority 1991, dated 1994).
Like-named read-outs stand apart in the source and are kept apart here. Bridge positions count the residues as written; N and C are the ends. Square brackets hold non-standard residues; d marks the D form. Peptide text beside a SMILES is read from it. tBuAla = CC(C)(C)C[C@H](N)C(=O)O; Mpa = O=C(O)CCS

Tests used:
[1] = system: porcine coronary smooth muscles
Experimental: (1) Assay of Constrictor Suppressing Activity on Porcine Coronary Smooth Muscles
(§1) Spiral strips 2 mm×15 mm prepared from the coronary right ramus circumflexus from which the adventitial connective tissues and the endothelial cells were removed were set to 4 ml organ baths. The tension of each strip was detected by a force displacement transducer UL-10GR (Minebea), and recorded by a polygraph (NEC Sanei). The organ baths were maintained at 37° C., and filled with a Krebs-Henseleit solution (composition: 118 mM NaCl, 4.7 mM KCl, 2.5 mM CaCl2, 1.2 mM KH2 PO4, 25.0 mM NaHCO3, 1.2 mM MgSO4, 10.0 mM glucose) gassed with 95% O2 and 5% CO2.
(§2) A tension of 1.25 to 1.5 g was applied to each of the strips, followed by equilibration for 1.5 hours. 60 mM KCl was repeatedly applied thereto at intervals of 30 minutes until the constriction response became constant. After additional equilibration for 1.5 hours, a sample for assay was given thereto. The constriction of the strips was normalized by the constriction response of the individual strips to 60 mM KCl and statistically processed.
pA2 is a negative logarithm value of a molar concentration of a competitive antagonist necessary for shifting in parallel a dose response curve for an active drug (for example, ET-1) alone to the high dose side by a factor of 2.

porcine coronary artery = experiment: Constrictor activity on porcine coronary smooth muscles; settings: for Maximum constriction (% 60 mM KCl): porcine coronary artery strips, normalized to 60 mM KCl response; for Constrictor activity (specific activity): relative to ET-1 = 100, porcine coronary artery
Experimental: as §1, §2
(2) As to the antagonistic property of the peptides of the present invention to endothelin, the affinity for an endothelin receptor and the constrictor activity on porcine coronary smooth muscles (according to the method described in (1) described above) were assayed. The affinity for the receptor was assayed by the following method.

endothelin receptor = experiment: Assay of affinity for receptor (inhibition of 125I-ET-1 binding to porcine myocardial membrane fraction); settings: relative to ET-1 = 100
Experimental: Assay of Affinity for Receptor
A membrane fraction prepared from the porcine heart was diluted to 0.15 mg/ml by using a buffer solution for assay, and 100 μl of the resulting suspension of the membrane fraction was poured into each assay tube to use for assay. To this suspension of the membrane fraction was added 2 μl of 5 nM ^125 I labeled endothelin-1 solution. Further, 3 μl of a test peptide solution was added thereto, followed by incubation at a temperature of 25° C. for 1 hour. Then, the resulting suspension was diluted with 900 μl of the buffer solution for assay cooled with ice, and thereafter separated into a supernatant and a precipitate by centrifugation at 12,000×g for 10 minutes. Cell membranes and an endothelin receptor embedded therein were contained in the precipitate, and radioactive iodine-labeled endothelin combined with the receptor was also recovered in the precipitate. Accordingly, the amount of radioactive iodine-labeled endothelin combined with the endothelin receptor was determined by measuring the amount of radioactive iodine contained in the precipitate with a gamma-ray counter.

Structure (SMILES)	pA2 [1]	Maximum constriction (% 60 mM KCl) (porcine coronary artery)	Constrictor activity (specific activity) (porcine coronary artery)	Receptor binding activity (specific activity) (endothelin receptor)	Relative potency [1]	pA2 ([1]; against cumulative endothelin-1, porcine coronary smooth muscles)
CC[C@H](C)[C@H](NC(=O)[C@H](CC(C)C)NC(=O)[C@@H](NC(=O)[C@H](CC(C)C)NC(=O)[C@H](Cc1c[nH]cn1)NC(=O)[C@@H]1CSSC[C@H](N)C(=O)N[C@@H](C)C(=O)N[C@H]2CSSC[C@H](NC(=O)[C@H](CCC(=O)O)NC(=O)[C@H](CCCCN)NC(=O)[C@H](CC(=O)O)NC(=O)[C@H](CCSC)NC(=O)[C@H](CC(C)C)NC(=O)[C@H](CO)NC(=O)[C@H](CO)NC2=O)C(=O)N[C@@H](C(C)C)C(=O)N[C@@H](Cc2ccc(O)cc2)C(=O)N[C@@H](Cc2ccccc2)C(=O)N1)[C@@H](C)O)C(=O)N[C@@H](Cc1c[nH]c2ccccc12)C(=O)O [Example 12, [Ala^2, Thr^18, Leu^19]-ET-1] (H-CACSSLMDKECVYFCHLTLIW-OH; disulfide 1-15, 3-11)	6.7	5	< 0.1	32	–	–
CC[C@H](C)[C@H](NC(=O)[C@H](CC(C)C)NC(=O)CNC(=O)[C@H](CC(C)C)NC(=O)[C@H](Cc1c[nH]cn1)NC(=O)[C@@H]1CSSC[C@H](N)C(=O)N[C@@H](CO)C(=O)N[C@H]2CSSC[C@H](NC(=O)[C@H](CCC(=O)O)NC(=O)[C@H](CCCCN)NC(=O)[C@H](CC(=O)O)NC(=O)[C@H](CCSC)NC(=O)[C@H](CC(C)C)NC(=O)[C@H](CO)NC(=O)[C@H](CO)NC2=O)C(=O)N[C@@H](C(C)C)C(=O)N[C@@H](Cc2ccc(O)cc2)C(=O)N[C@@H](Cc2ccccc2)C(=O)N1)C(=O)N[C@@H](Cc1c[nH]c2ccccc12)C(=O)O [Example 8, [Gly^18, Leu^19]-ET-1] (H-CSCSSLMDKECVYFCHLGLIW-OH; disulfide 1-15, 3-11)	6.7	14	< 0.1	9.5	10	–
CC[C@H](C)[C@H](NC(=O)[C@H](CC(C)C)NC(=O)[C@@H](NC(=O)[C@H](CC(C)C)NC(=O)[C@H](Cc1c[nH]cn1)NC(=O)[C@@H]1CSSC[C@H](N)C(=O)N[C@@H](CO)C(=O)N[C@H]2CSSC[C@H](NC(=O)[C@H](CCC(=O)O)NC(=O)[C@H](CCCCN)NC(=O)[C@H](CC(=O)O)NC(=O)[C@H](C)NC(=O)[C@H](CC(C)C)NC(=O)[C@H](CO)NC(=O)[C@H](CO)NC2=O)C(=O)N[C@@H](C(C)C)C(=O)N[C@@H](Cc2ccc(O)cc2)C(=O)N[C@@H](Cc2ccccc2)C(=O)N1)[C@@H](C)O)C(=O)N[C@@H](Cc1c[nH]c2ccccc12)C(=O)O [Example 16, [Ala^7, Thr^18, Leu^19]-ET-1] (H-CSCSSLADKECVYFCHLTLIW-OH; disulfide 1-15, 3-11)	7.2	9	< 0.1	62	–	–
CC[C@H](C)[C@H](NC(=O)[C@H](CC(C)C)NC(=O)[C@@H](NC(=O)[C@H](CC(C)C)NC(=O)[C@H](Cc1c[nH]cn1)NC(=O)[C@@H]1CSSCCC(=O)N[C@@H](CO)C(=O)N[C@H]2CSSC[C@H](NC(=O)[C@H](CCC(=O)O)NC(=O)[C@H](CCCCN)NC(=O)[C@H](CC(=O)O)NC(=O)[C@H](CCSC)NC(=O)[C@H](CC(C)C)NC(=O)[C@H](CO)NC(=O)[C@H](CO)NC2=O)C(=O)N[C@@H](C(C)C)C(=O)N[C@@H](Cc2ccc(O)cc2)C(=O)N[C@@H](Cc2ccccc2)C(=O)N1)[C@@H](C)O)C(=O)N[C@@H](Cc1c[nH]c2ccccc12)C(=O)O [Example 11, [Mpr^1, Thr^18, Leu^19]-ET-1] ([Mpa]SCSSLMDKECVYFCHLTLIW-OH; disulfide 1-15, 3-11)	6.5	1	< 0.1	16	6	–
CC[C@H](C)[C@H](NC(=O)[C@H](CC(C)C)NC(=O)[C@@H](NC(=O)[C@H](CC(C)C)NC(=O)[C@H](Cc1c[nH]cn1)NC(=O)[C@@H]1CSSC[C@H](N)C(=O)N[C@@H](CO)C(=O)N[C@H]2CSSC[C@H](NC(=O)[C@H](CCC(=O)O)NC(=O)[C@H](CCCCN)NC(=O)[C@H](CC(=O)O)NC(=O)[C@H](CCSC)NC(=O)[C@H](CC(C)C)NC(=O)[C@H](C)NC(=O)[C@H](CO)NC2=O)C(=O)N[C@@H](C(C)C)C(=O)N[C@@H](Cc2ccc(O)cc2)C(=O)N[C@@H](Cc2ccccc2)C(=O)N1)[C@@H](C)O)C(=O)N[C@@H](Cc1c[nH]c2ccccc12)C(=O)O [Example 14, [Ala^5, Thr^18, Leu^19]-ET-1] (H-CSCSALMDKECVYFCHLTLIW-OH; disulfide 1-15, 3-11)	5.5	6	< 0.1	8.6	0.6	–
CC[C@H](C)[C@H](NC(=O)[C@H](Cc1ccccc1)NC(=O)[C@@H](NC(=O)[C@H](CC(C)C)NC(=O)[C@H](Cc1c[nH]cn1)NC(=O)[C@@H]1CSSC[C@H](N)C(=O)N[C@@H](CO)C(=O)N[C@H]2CSSC[C@H](NC(=O)[C@H](CCC(=O)O)NC(=O)[C@H](CCCCN)NC(=O)[C@H](CC(=O)O)NC(=O)[C@H](CCSC)NC(=O)[C@H](CC(C)C)NC(=O)[C@H](CO)NC(=O)[C@H](CO)NC2=O)C(=O)N[C@@H](C(C)C)C(=O)N[C@@H](Cc2ccc(O)cc2)C(=O)N[C@@H](Cc2ccccc2)C(=O)N1)[C@@H](C)O)C(=O)N[C@@H](Cc1c[nH]c2ccccc12)C(=O)O [Example 3, [Thr^18, Phe^19]-ET-1] (H-CSCSSLMDKECVYFCHLTFIW-OH; disulfide 1-15, 3-11)	7.2	4	< 0.1	9.0	32	–
CC[C@H](C)[C@H](NC(=O)[C@H](CC(C)(C)C)NC(=O)[C@@H](NC(=O)[C@H](CC(C)C)NC(=O)[C@H](Cc1c[nH]cn1)NC(=O)[C@@H]1CSSC[C@H](N)C(=O)N[C@@H](CO)C(=O)N[C@H]2CSSC[C@H](NC(=O)[C@H](CCC(=O)O)NC(=O)[C@H](CCCCN)NC(=O)[C@H](CC(=O)O)NC(=O)[C@H](CCSC)NC(=O)[C@H](CC(C)C)NC(=O)[C@H](CO)NC(=O)[C@H](CO)NC2=O)C(=O)N[C@@H](C(C)C)C(=O)N[C@@H](Cc2ccc(O)cc2)C(=O)N[C@@H](Cc2ccccc2)C(=O)N1)[C@@H](C)O)C(=O)N[C@@H](Cc1c[nH]c2ccccc12)C(=O)O [Example 4, [Thr^18, γLeu^19]-ET-1] (H-CSCSSLMDKECVYFCHLT[tBuAla]IW-OH; disulfide 1-15, 3-11)	–	0	< 0.1	23	–	7.4
CC[C@H](C)[C@H](NC(=O)[C@H](CC(C)C)NC(=O)[C@@H](NC(=O)[C@H](CC(C)C)NC(=O)[C@H](Cc1c[nH]cn1)NC(=O)[C@@H]1CSSC[C@H](N)C(=O)N[C@@H](CO)C(=O)N[C@H]2CSSC[C@H](NC(=O)[C@H](CCC(=O)O)NC(=O)[C@H](CCCCN)NC(=O)[C@H](CC(=O)O)NC(=O)[C@H](CCSC)NC(=O)[C@H](CC(C)C)NC(=O)[C@H](CO)NC(=O)[C@H](C)NC2=O)C(=O)N[C@@H](C(C)C)C(=O)N[C@@H](Cc2ccc(O)cc2)C(=O)N[C@@H](Cc2ccccc2)C(=O)N1)[C@@H](C)O)C(=O)N[C@@H](Cc1c[nH]c2ccccc12)C(=O)O [Example 13, [Ala^4, Thr^18, Leu^19]-ET-1] (H-CSCASLMDKECVYFCHLTLIW-OH; disulfide 1-15, 3-11)	6.9	6	< 0.1	57	–	–
CC[C@H](C)[C@H](NC(=O)[C@H](CC(C)C)NC(=O)[C@H](CO)NC(=O)[C@H](CC(C)C)NC(=O)[C@H](Cc1c[nH]cn1)NC(=O)[C@@H]1CSSC[C@H](N)C(=O)N[C@@H](CO)C(=O)N[C@H]2CSSC[C@H](NC(=O)[C@H](CCC(=O)O)NC(=O)[C@H](CCCCN)NC(=O)[C@H](CC(=O)O)NC(=O)[C@H](CCSC)NC(=O)[C@H](CC(C)C)NC(=O)[C@H](CO)NC(=O)[C@H](CO)NC2=O)C(=O)N[C@@H](C(C)C)C(=O)N[C@@H](Cc2ccc(O)cc2)C(=O)N[C@@H](Cc2ccccc2)C(=O)N1)C(=O)N[C@@H](Cc1c[nH]c2ccccc12)C(=O)O [Example 6, [Ser^18, Leu^19]-ET-1] (H-CSCSSLMDKECVYFCHLSLIW-OH; disulfide 1-15, 3-11)	7.5	1	< 0.1	15	63	–
